From patent US20240287154A1, “MC3R AGONIST PEPTIDES” (The Regents of the University of Michigan, priority 2021, published 2024)
Non-standard residues stand in square brackets, D forms with d. Residues, ends and D or L forms follow the SMILES beside them. Phe(4-Br) = N[C@@H](Cc1ccc(Br)cc1)C(=O)O; Phe(4-Cl) = N[C@@H](Cc1ccc(Cl)cc1)C(=O)O; Phe(4-F) = N[C@@H](Cc1ccc(F)cc1)C(=O)O; Phe(4-I) = N[C@@H](Cc1ccc(I)cc1)C(=O)O; 2Nal = N[C@@H](Cc1ccc2ccccc2c1)C(=O)O; Nle = CCCC[C@H](N)C(=O)O; dAbu = CC[C@@H](N)C(=O)O

Key:
human MC3R = target: T1, human MC3R (Homo sapiens, UniProt P41968); assay: Intracellular cAMP levels in live cells, MC3R agonist activity; assay type: cell-based; conditions: cAMP split-luciferase reporter cell line stably expressing human MC3R; direct agonist effect, measurement window 1
T1 construct: expressed in transfected cells
Procedure: The stable cell lines were grown and maintained in selection media consisting of Dulbecco's modified Eagle media (DMEM) with 4.5 g/l D-glucose, and 4 mM L-glutamine (Thermo Fisher Scientific, Waltham, MA), supplemented with 10% fetal bovine serum, 100 units/ml penicillin, 100 μg/ml streptomycin, 2.5 μg/ml amphotericin B, 200 μg/ml hygromycin B (for positive selection of the GScAMP22f luciferase reporter), and Geneticin™ (G418) 700 μg/ml (for MC3R or MC4R selection). Actual serum concentration during the assay is estimated to be about 1%. Cell line identity is routinely verified by qPCR and MC3R- and MC4R-specific oligonucleotides.
The assay for the determination of the CAMP response in live cells was described previously. […] Ccells were seeded at a density of 20,000 cells per well using 384-well poly-D lysine-coated, clear bottom, and black-wall assay plates (Corning Inc. Corning, NJ). Cells were allowed to attach to the plates for 18 to 24 h after which growth media was removed and 20 ul of 4% D-luciferin (Promega) in CO2 independent, serum-free medium (Thermo Fisher Scientific) was added to each well. […] Intracellular cAMP levels were measured using an FDSS 7000EX Functional Drug Screening System (Hamamatsu Photonics, Hamamatsu, Japan) in the Center for Chemical Genomics at the Life Sciences Institute. This instrument allowed the in-line addition of test-peptides and receptor agonists while simultaneously acquiring the luminescence signal from live cells. […] A submaximal forskolin (20 μM) concentration was also included to serve as a normalization reference to account for cell number variations and differences in assay transducer efficiency between cell lines.
With this set up it was possible to evaluate the direct agonist effect of the test-peptides on the MC3R and MC4R cell lines during measurement window 1, while the antagonist profile in the presence of EC90 α-MSH was determined on measurement window 2. […] EC50 or IC50 potency values were determined by non-linear regression by fitting the data to a sigmoid four-parameter variable slope model using the GraphPad Prism version 8.4 software package (San Diego CA).

human MC4R = human MC4R (Homo sapiens, UniProt P32245); assay: Intracellular cAMP levels in live cells, MC3R selectivity relative to MC4R; assay type: cell-based; conditions: cAMP assays in human MC3R and human MC4R stable cell lines
human MC4R, sequence (P32245 whole entry): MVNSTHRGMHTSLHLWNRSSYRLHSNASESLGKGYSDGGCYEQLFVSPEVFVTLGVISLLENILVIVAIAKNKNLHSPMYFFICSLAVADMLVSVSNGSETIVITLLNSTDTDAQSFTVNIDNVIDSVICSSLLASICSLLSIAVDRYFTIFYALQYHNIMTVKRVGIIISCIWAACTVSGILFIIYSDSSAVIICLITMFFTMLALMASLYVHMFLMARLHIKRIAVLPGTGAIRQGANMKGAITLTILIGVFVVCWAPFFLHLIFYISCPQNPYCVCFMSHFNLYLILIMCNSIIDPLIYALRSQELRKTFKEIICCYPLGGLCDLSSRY

T1 sequence (P41968 whole entry): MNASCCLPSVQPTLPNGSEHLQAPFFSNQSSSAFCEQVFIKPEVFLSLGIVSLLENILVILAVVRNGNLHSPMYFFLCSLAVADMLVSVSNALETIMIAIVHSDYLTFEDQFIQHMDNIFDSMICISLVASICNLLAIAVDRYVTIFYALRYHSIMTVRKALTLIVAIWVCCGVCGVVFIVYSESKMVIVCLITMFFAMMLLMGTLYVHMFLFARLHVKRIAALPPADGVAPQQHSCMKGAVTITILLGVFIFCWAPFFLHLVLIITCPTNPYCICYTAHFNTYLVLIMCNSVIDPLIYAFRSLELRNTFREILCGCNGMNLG

Row | SMILES | EC50 (human MC3R) [nM] | MC3R selectivity (relative to MC4R) (human MC4R)
1 | CCCC[C@H](NC(=O)CNC(=O)COCCOCCNC(=O)CNC(=O)CCc1ccc(I)cc1)C(=O)N[C@H](C)C(=O)N[C@@H](Cc1c[nH]cn1)C(=O)N[C@@H](Cc1ccccc1)C(=O)N[C@@H](CCCNC(=N)N)C(=O)N[C@H](Cc1c[nH]c2ccccc12)C(=O)N[C@@H](CC(=O)O)C(=O)N[C@@H](CCCNC(=N)N)C(=O)N[C@H](Cc1ccccc1)C(=O)NCC(=O)O [CTX-1154, Gly-Nle-D-Ala-His-Phe-Arg-D-Trp-Asp-Arg-D-Phe-Gly] | 5.8 | 1070
2 | CCCC[C@H](NC(C)=O)C(=O)N[C@H](C)C(=O)N[C@@H](Cc1c[nH]cn1)C(=O)N[C@@H](Cc1ccccc1)C(=O)N[C@@H](CCCNC(=N)N)C(=O)N[C@H](Cc1c[nH]c2ccccc12)C(=O)NCC(=O)N[C@@H](CCCCN)C(=O)N1CCC[C@H]1C(=O)N[C@H](C(N)=O)C(C)C [CTX-1164, Nle-D-Ala-His-Phe-Arg-D-Trp-Gly-Lys-Pro-Val] (Ac-[Nle][dA]HFR[dW]GKPV-NH2) | 1.5 | 83
3 | CCCC[C@H](NC(C)=O)C(=O)N[C@H](C)C(=O)N[C@@H](Cc1c[nH]cn1)C(=O)N[C@@H](Cc1ccc(Br)cc1)C(=O)N[C@@H](CCCNC(=N)N)C(=O)N[C@H](Cc1c[nH]c2ccccc12)C(=O)N[C@@H](CC(=O)O)C(=O)N[C@@H](CCCNC(=N)N)C(=O)N[C@@H](Cc1ccccc1)C(=O)NCC(=O)O [CTX-1165, Nle-D-Ala-His-Phe(4-Br)-Arg-D-Trp-Asp-Arg-Phe-Gly] (Ac-[Nle][dA]H[Phe(4-Br)]R[dW]DRFG-OH) | 3 | 5598
4 | CCCC[C@H](NC(C)=O)C(=O)N[C@H](C)C(=O)N[C@@H](Cc1c[nH]cn1)C(=O)N[C@@H](Cc1ccc(I)cc1)C(=O)N[C@@H](CCCNC(=N)N)C(=O)N[C@H](Cc1c[nH]c2ccccc12)C(=O)N[C@@H](CC(=O)O)C(=O)N[C@@H](CCCNC(=N)N)C(=O)N[C@@H](Cc1ccccc1)C(=O)NCC(=O)O [CTX-1167, Nle-D-Ala-His-Phe(4-I)-Arg-D-Trp-Asp-Arg-Phe-Gly] (Ac-[Nle][dA]H[Phe(4-I)]R[dW]DRFG-OH) | 4.8 | 937
5 | CCCC[C@H](NC(C)=O)C(=O)N[C@H](C)C(=O)N[C@@H](Cc1c[nH]cn1)C(=O)N[C@@H](Cc1ccc(I)cc1)C(=O)N[C@@H](CCCNC(=N)N)C(=O)N[C@H](Cc1c[nH]c2ccccc12)C(=O)N[C@@H](CC(=O)O)C(=O)N[C@@H](CCCNC(=N)N)C(=O)N[C@@H](Cc1ccccc1)C(N)=O [CTX-1169, Nle-D-Ala-His-Phe(4-I)-Arg-D-Trp-Asp-Arg-Phe] (Ac-[Nle][dA]H[Phe(4-I)]R[dW]DRF-NH2) | 4.8 | 200
6 | CCCC[C@H](NC(C)=O)C(=O)N[C@H](CC)C(=O)N[C@@H](Cc1c[nH]cn1)C(=O)N[C@@H](Cc1ccc(I)cc1)C(=O)N[C@@H](CCCNC(=N)N)C(=O)N[C@H](Cc1c[nH]c2ccccc12)C(=O)N[C@@H](CC(=O)O)C(=O)N[C@@H](CCCNC(=N)N)C(=O)N[C@@H](Cc1ccccc1)C(=O)NCC(=O)O [CTX-1191, Nle-D-Abu-His-Phe(4-I)-Arg-D-Trp-Asp-Arg-Phe-Gly] (Ac-[Nle][dAbu]H[Phe(4-I)]R[dW]DRFG-OH) | 3.9 | 470
7 | CCCC[C@H](NC(C)=O)C(=O)N[C@H](C)C(=O)N[C@@H](Cc1c[nH]cn1)C(=O)N[C@@H](Cc1ccc2ccccc2c1)C(=O)N[C@@H](CCCNC(=N)N)C(=O)N[C@H](Cc1c[nH]c2ccccc12)C(=O)N[C@@H](CC(=O)O)C(=O)N[C@@H](CCCNC(=N)N)C(=O)N[C@@H](Cc1ccccc1)C(=O)NCC(=O)O [CTX-1512, Nle-D-Ala-His-Nal(2')-Arg-D-Trp-Asp-Arg-Phe-Gly] (Ac-[Nle][dA]H[2Nal]R[dW]DRFG-OH) | 13.1 | 804
8 | CCCC[C@H](NC(C)=O)C(=O)N[C@H](C)C(=O)N[C@@H](Cc1c[nH]cn1)C(=O)N[C@@H](Cc1ccc(F)cc1)C(=O)N[C@@H](CCCNC(=N)N)C(=O)N[C@H](Cc1c[nH]c2ccccc12)C(=O)N[C@@H](CC(=O)O)C(=O)N[C@@H](CCCNC(=N)N)C(=O)N[C@@H](Cc1ccccc1)C(=O)NCC(=O)O [CTX-1518, Nle-D-Ala-His-Phe(4-F)-Arg-D-Trp-Asp-Arg-Phe-Gly] (Ac-[Nle][dA]H[Phe(4-F)]R[dW]DRFG-OH) | 1.9 | 1,559
9 | CCCC[C@H](NC(C)=O)C(=O)N[C@H](C)C(=O)N[C@@H](Cc1c[nH]cn1)C(=O)N[C@@H](Cc1ccccc1)C(=O)N[C@@H](CCCNC(=N)N)C(=O)N[C@H](Cc1c[nH]c2ccccc12)C(=O)N[C@@H](C)C(=O)N[C@@H](CCCNC(=N)N)C(=O)N[C@@H](Cc1ccccc1)C(=O)NCC(=O)O [CTX-1528, Nle-D-Ala-His-Phe-Arg-D-Trp-Ala-Arg-Phe-Gly] (Ac-[Nle][dA]HFR[dW]ARFG-OH) | 1.9 | 182
10 | CCCC[C@H](NC(C)=O)C(=O)N[C@H](C)C(=O)N[C@@H](Cc1c[nH]cn1)C(=O)N[C@@H](Cc1ccccc1)C(=O)N[C@@H](CCCNC(=N)N)C(=O)N[C@H](Cc1c[nH]c2ccccc12)C(=O)N[C@@H](Cc1ccccc1)C(=O)N[C@@H](CCCNC(=N)N)C(=O)N[C@@H](Cc1ccccc1)C(=O)NCC(=O)O [CTX-1529, Nle-D-Ala-His-Phe-Arg-D-Trp-Phe-Arg-Phe-Gly] (Ac-[Nle][dA]HFR[dW]FRFG-OH) | 4.8 | 82
11 | CCCC[C@H](NC(C)=O)C(=O)N[C@H](C)C(=O)N[C@@H](Cc1c[nH]cn1)C(=O)N[C@@H](Cc1ccccc1)C(=O)N[C@@H](CCCNC(=N)N)C(=O)N[C@H](Cc1c[nH]c2ccccc12)C(=O)N[C@H](Cc1ccccc1)C(=O)N[C@@H](CCCNC(=N)N)C(=O)N[C@@H](Cc1ccccc1)C(=O)NCC(=O)O [CTX-1531, Nle-D-Ala-His-Phe-Arg-D-Trp-D-Phe-Arg-Phe-Gly] (Ac-[Nle][dA]HFR[dW][dF]RFG-OH) | 357 | 8
12 | CCCC[C@H](NC(C)=O)C(=O)N[C@H](C)C(=O)N[C@@H](Cc1c[nH]cn1)C(=O)N[C@@H](Cc1ccc(I)cc1)C(=O)N[C@@H](CCCNC(=N)N)C(=O)N[C@H](Cc1c[nH]c2ccccc12)C(=O)NCC(N)=O [CTX-1543, Nle-D-Ala-His-Phe(4-I)-Arg-D-Trp-Gly] (Ac-[Nle][dA]H[Phe(4-I)]R[dW]G-NH2) | 3.1 | 202
13 | CSCC[C@H](NC(=O)[C@@H](N)C(C)C)C(=O)NCC(=O)N[C@@H](Cc1c[nH]cn1)C(=O)N[C@@H](Cc1ccccc1)C(=O)N[C@@H](CCCNC(=N)N)C(=O)N[C@H](Cc1c[nH]c2ccccc12)C(=O)N[C@@H](CC(=O)O)C(=O)N[C@@H](CCCNC(=N)N)C(=O)N[C@@H](Cc1ccccc1)C(=O)NCC(=O)O [CTX-1546, Val-Met-Gly-His-Phe-Arg-D-Trp-Asp-Arg-Phe-Gly] (H-VMGHFR[dW]DRFG-OH) | 1.7 | 51
14 | CSCC[C@H](N)C(=O)NCC(=O)N[C@@H](Cc1c[nH]cn1)C(=O)N[C@@H](Cc1ccccc1)C(=O)N[C@@H](CCCNC(=N)N)C(=O)N[C@H](Cc1c[nH]c2ccccc12)C(=O)N[C@@H](CC(=O)O)C(=O)N[C@@H](CCCNC(=N)N)C(=O)N[C@@H](Cc1ccccc1)C(=O)NCC(=O)O [CTX-1547, Met-Gly-His-Phe-Arg-D-Trp-Asp-Arg-Phe-Gly] (H-MGHFR[dW]DRFG-OH) | 1.5 | 54
15 | CCCC[C@H](NC(=O)[C@@H](NC(=O)[C@@H](N)Cc1ccc(O)cc1)C(C)C)C(=O)N[C@H](C)C(=O)N[C@@H](Cc1c[nH]cn1)C(=O)N[C@@H](Cc1ccc(Cl)cc1)C(=O)N[C@@H](CCCNC(=N)N)C(=O)N[C@H](Cc1c[nH]c2ccccc12)C(=O)N[C@@H](CC(=O)O)C(=O)N[C@@H](CCCNC(=N)N)C(=O)N[C@@H](Cc1ccccc1)C(=O)NCC(=O)O [CTX-2121, Tyr-Val-Nle-D-Ala-His-Phe(4-Cl)-Arg-D-Trp-Asp-Arg-Phe-Gly] (H-YV[Nle][dA]H[Phe(4-Cl)]R[dW]DRFG-OH) | 2.5 | 93
